# ± gives the expanded uncertainty stated by the source.
# Assay: Molar enthalpy of transition or fusion
# Settings: Crystal; DSC
row,Molar enthalpy of transition or fusion [kcal/mol],Structure (SMILES)
1,13.2 ± 0.359,C=C(C)[C@@H]1CC[C@]2(CO)CC[C@]3(C)[C@H](CC[C@@H]4[C@@]5(C)CC[C@H](O)C(C)(C)[C@@H]5CC[C@]43C)[C@@H]12 [betulin]

# Assay: not given
# Settings: Crystal; DTA
row,Normal melting temperature [°C],Structure (SMILES)
1,255.0 ± 0.4,C=C(C)[C@@H]1CC[C@]2(CO)CC[C@]3(C)[C@H](CC[C@@H]4[C@@]5(C)CC[C@H](O)C(C)(C)[C@@H]5CC[C@]43C)[C@@H]12 [betulin]

# Assay: refractive index (Na D-line) (dimensionless)
# Settings: 293.15 K; 101.33 kPa; Liquid; Standard Abbe refractometry
row,refractive index,Structure (SMILES)
1,1.469 ± 0.0004,CN1CCCC1=O [N-methylpyrrolidone]
2,1.3983 ± 0.0004,CCC(C)O (stereo not given) [butan-2-ol]
3,1.4218 ± 0.0004,CCCCCCCCCCCC [dodecane]
4,1.4849 ± 0.0004,O=CN1CCOCC1 [N-formylmorpholine]
5,1.4346 ± 0.0004,CCCCCCCCCCCCCCCC [hexadecane]
6,1.4291 ± 0.0004,CCCCCCCCO [octan-1-ol]
7,1.3439 ± 0.0004,CC#N [acetonitrile]
8,1.3978 ± 0.0004,CCCCCCCC [octane]
9,1.4304 ± 0.0004,CN(C)C=O [dimethylformamide]
10,1.4334 ± 0.0004,CCCCCCCCCO [nonan-1-ol]
11,1.4098 ± 0.0004,CCCCCO [pentan-1-ol]
12,1.4542 ± 0.0004,NCCO [2-aminoethan-1-ol]
13,1.3329 ± 0.0004,O [water]
